The text below walks through data of patent US20260200903A1, “PHARMACEUTICAL COMPOSITION FOR AMELIORATING MALIGNANT DISEASES” (KINKI UNIVERSITY, priority 2020, published 2026).

Type in all cases: cell-based
Assay [1] deals with Rec-1 cells (mantle cell lymphoma cell line). Briefly: Cell death inducing effect on Rec-1 cells, trypan blue staining. Conditions: Rec-1 (mantle cell lymphoma), cell viability. The protocol: Rec-1 cells (mantle cell lymphoma cell line) were cultured under 5% CO2 at 37° C. The culture medium used RPMI-1640 medium with 100 μg/mL penicillin, 100 U/mL streptomycin and fetal bovine serum. Rec-1 cells were seeded into 96-well plates and incubated with each concentration of the compounds was added, and cell viability was determined by the trypan blue staining.
(§1) For controls, only 0.5% DMSO (diluted in PBS) used to dissolve the compounds was added. For each concentration, each bar line is indicated by an arrow with the sign “n, a, 1, 2, 3, 4, 5, 6, 7, 8, 9, 10, 11, 12” from left to right. The “1, 3, 5, 7, 9, 11” are omitted from the graph, but the sign “1” shall be indicated by an arrow between the signs “a” and “2”, the sign “3” between the signs “2” and “4”, and other odd numbers shall likewise be indicated by arrows between even numbers before and after.
(§2) The sign “n” is the norathyriol (formula (n)) administration group, the sign “a” is the mangiferin 8a (formula (a)) administration group, the sign “1” is the yk-7 (formula (1)) administration group, the sign “2” is the yk-8-1 (formula (2)) administration group, the sign “3” is the yk-8-3 (formula (3)) administration group, the sign “4” is the M7 (formula (4)) administration group, the sign “5” is the M9 (formula (5)) administration group, the sign “6” is the M11 (formula (6)) administration group, the sign “7” is the M12 (formula (7)) administration group, the sign “8” is the M14 (formula (8)) administration group, the sign “9” is the M15 (formula (9)) administration group, the sign “10” is the M16 (formula (10)) administration group, the sign “11” is the M18 (formula (11)) administration group, the sign “12” is the M19 (formula (12)) administration group, respectively. The IC50 values for each compound is also listed in the upper right corner of the figure.

The test system of assay [2] is RR1 cells (rituximab-resistant burkitt lymphoma cell line). The assay can be described thus: Cell death inducing effect on RR1 cells, trypan blue staining. As to conditions: RR1 (Burkkit lymphoma; rituximab resistance), cell viability. The protocol: Raji cells, a burkitt lymphoma cell line, were modified to be rituximab-resistant and named RR1 cells.
RR1 cells (rituximab-resistant burkitt lymphoma cell line) were cultured under 5% CO2 at 37° C. The culture medium used RPMI-1640 medium with 100 μg/mL penicillin, 100 U/mL streptomycin and fetal bovine serum. RR-1 cells were seeded into 96-well plates and incubated with each concentration of the compounds was added, and cell viability was determined by the trypan blue staining.
as §1, §2

The target in another assay is T1, phospho-NIK (Homo sapiens, UniProt Q99558).
T1 construct: Proteins were extracted from these cell suspensions with cell lysate and used as samples; endogenous in cells; host or cells: KMS-28BM (myeloma)
T1 sequence (Q99558 whole entry): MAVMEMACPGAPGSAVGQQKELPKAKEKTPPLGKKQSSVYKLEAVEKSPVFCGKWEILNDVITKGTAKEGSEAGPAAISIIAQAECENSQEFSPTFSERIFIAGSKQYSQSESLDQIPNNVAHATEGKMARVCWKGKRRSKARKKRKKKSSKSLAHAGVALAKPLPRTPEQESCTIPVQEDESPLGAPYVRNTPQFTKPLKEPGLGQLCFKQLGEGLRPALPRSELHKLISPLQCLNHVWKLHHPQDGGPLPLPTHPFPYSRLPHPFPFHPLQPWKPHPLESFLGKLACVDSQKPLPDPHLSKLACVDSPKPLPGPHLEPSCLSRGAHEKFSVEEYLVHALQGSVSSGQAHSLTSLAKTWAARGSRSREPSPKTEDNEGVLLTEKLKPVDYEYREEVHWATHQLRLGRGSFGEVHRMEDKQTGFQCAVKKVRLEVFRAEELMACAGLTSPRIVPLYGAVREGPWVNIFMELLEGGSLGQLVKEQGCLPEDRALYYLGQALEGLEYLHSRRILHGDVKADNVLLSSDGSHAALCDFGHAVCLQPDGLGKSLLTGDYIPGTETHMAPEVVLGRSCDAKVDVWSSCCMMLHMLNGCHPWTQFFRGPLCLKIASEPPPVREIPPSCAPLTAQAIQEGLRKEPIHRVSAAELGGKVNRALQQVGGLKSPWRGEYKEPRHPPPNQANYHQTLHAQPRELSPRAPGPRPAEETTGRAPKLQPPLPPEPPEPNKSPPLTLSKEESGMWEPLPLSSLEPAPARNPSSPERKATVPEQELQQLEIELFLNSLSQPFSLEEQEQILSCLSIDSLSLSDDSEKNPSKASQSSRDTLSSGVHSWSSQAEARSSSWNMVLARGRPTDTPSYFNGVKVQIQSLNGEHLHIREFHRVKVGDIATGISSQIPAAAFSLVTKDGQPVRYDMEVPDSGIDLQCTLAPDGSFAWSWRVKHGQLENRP
The assay can be described thus: Immunoblotting of phospho-NIK in KMS-28BM cells. As to conditions: 72 h, vs control, 1 μM mangiferin 8a/M8, 1 μM norathyriol, 0.5 μM M7, 0.2 μM M9, 5 μM yk-7, 0.5 μM yk-8-3, 100 μM yk-8-1, 0.5 μM M19, M18, M11, 0.005 μM M16, M15, M14, 0.05 μM M12. The protocol: (§3) Immunoblotting was performed on KMS-28BM cells to investigate the inhibitory effect of each compound administration on NIK inhibition and the activation of IKK, NF-κB p52, and NF-κB p65, which are downstream signals of NIK. As a result, inhibition of NIK activation, inhibition of IKK activity, and inhibition of nuclear translocation of NF-κB p52 and NF-κB p65 were observed (FIG. 15 and FIG. 16).
(§4) As a control, compounds untreated KMS-28BM cells were seeded in 150 cm^2 flasks and incubated for 72 h at 37° C. and 5% CO2. KMS-28BM cells were seeded into 150 cm^2 flasks and pre-cultured for 24 h. After incubation, KMS-28BM cells were treated with […], 1 μM norathyriol, 0.5 μM M7 (formula (4)), 1 μM M8 (mangiferin 8a: listed in duplicate), 0.2 μM M9 (formula (5)), 5 μM yk-7 (formula (1)), 0.5 μM yk-8-3 (formula (3)) and 100 μM yk-8-1 (formula (2)) at final concentrations, and incubated for 72 h at 37° C. and 5% CO2. In addition, KMS-28BM cells were also treated with 0.5 μM M19 (formula (12)), 0.5 μM M18 (formula (11)), 0.005 μM M16 (formula (10)), […] (formula (9)), 0.005 μM M14 (formula (8)), 0.05 μM M12 (formula (7)) and […] (formula (6)) at the final concentrations, and incubated for 72 h at 37° C. and 5% CO2. Proteins were extracted from these cell suspensions with cell lysate and used as samples.
(§5) The nucleus and cytoplasmic substrate were separated from the cells using the ProteoExtract (registered trademark) Subcellular Proteome Extraction Kit from Merck Ltd. to extract the cytoplasmic and nuclear fractions.
(§6) After SDS-PAGE, each sample was transferred to a PVDF membrane and examined using anti-phospho-NIK, anti-NIK, anti-phospho-IKK, anti-IKK, anti-P-actin, anti-NF-κB p52 and anti-NF-κB p65 antibody, and anti-Lamin antibody.
(§7) The antibody species is indicated in the vertical direction. Specifically, for anti-phospho-NIK antibody, “Phospho-NIK” was used, for anti-NIK antibody, “NIK” was used, for anti-phospho-IKK antibody, “Phospho-IKK” was used, for anti-IKK antibody, “IKK” was used, for anti-p-actin antibody, “p-actin” was used, for anti-NF-κB p52 antibody, “NF-κB p52 nuclear” was used, for anti-NF-κB p65 antibody, “NF-κB p65 nuclear” was used, and for anti-Lamin antibody, “Lamin” was used.
(In general: Immunoblotting shows a protein as a band on a membrane.)

The next assay has as its system phospho-IKK. Briefly: Immunoblotting of phospho-IKK in KMS-28BM cells. As to conditions: 72 h, vs control, same concentrations as for phospho-NIK (0.005-100 μM). The protocol: as §3, §4, §5, §6, §7
In a further assay the test system is CD138. The assay can be described thus: CD138 expression in L363 cells, flow cytometry. As to conditions: 10 days, concentration lower than the IC50 (0.005-50 μM), compared to the positive control. The protocol: As a control, compounds untreated L363 cells were seeded in 75 cm^2 flasks and incubated for 10 days at 37° C. and 5% CO2. L363 cells were seeded into 75 cm^2 flasks and pre-cultured for 4 h. After incubation, L363 cells were treated with 0.1 μM M7, 0.05 μM M9, 0.1 μM yk-7, 0.1 μM yk-8-3, 50 μM yk-8-1, 0.1 μM M11, 0.01 μM M12, 0.005 μM M14, 0.005 μM M15, 0.005 μM M16, 1 μM M18, and 1 μM M19 at final concentrations, and incubated for 10 days at 37° C. and 5% CO2. This added amount is a concentration lower than the IC50 of the above compounds for L363 cells. After 10 days of incubation, cells were stained with anti-CD138 antibody, a marker of multiple myeloma grade, and CD138 expression was measured using BD LSRFortessa.
Results are shown in FIG. 25, FIG. 26, FIG. 27 and FIG. 28. The horizontal axis represents the expression level of CD138 and the vertical axis represents the number of cells.

The structures appear in SMILES notation. pIC50: −log10 of the molar value.

One may read the pIC50 as −log10 of the IC50, conventionally taken in molar units. As for `C=CCOc1cc(O)cc2oc3cc(O)c(O)cc3c(=O)c12` [Compound M19, 1-allyloxy-3,6,7-trihydroxy-9H-xanthen-9-one], the pIC50 in assay [1] (Homo sapiens, Rec1) was 4.66; in assay [2] it was 6.10. Also, the “phospho-NIK band density (anti-phospho-NIK antibody)” value (“phospho-NIK band density” for short) on phospho-NIK is listed as “decrease in band density”. The “phospho-IKK band density (anti-phospho-IKK antibody)” value (“phospho-IKK band density” below) in the assay on phospho-IKK is “decrease in band density”. Further, the CD138 expression levels result in the assay on CD138 is reported as “markedly reduced”.

Consider `CCCCC(=O)OC[C@H]1O[C@@H](c2c(O)cc3oc4cc(O)c(O)cc4c(=O)c3c2O)[C@H](OC(=O)CCCC)[C@@H](OC(=O)CCCC)[C@@H]1OC(=O)CCCC` [yk-7, 2′,3′,4′,6′-tetra-O-valerylmangiferin], for which the pIC50 was 5.59 in assay [1] (Homo sapiens, Rec1) and 7.38 in assay [2]. For the same compound, the “phospho-NIK band density” value at phospho-NIK is recorded as “decrease in band density”. Besides, the “phospho-IKK band density” value in the assay with phospho-IKK is listed as “decrease in band density”. The CD138 expression levels entry in the assay on CD138 was “markedly reduced”.

For `CCCCC(=O)OC[C@H]1O[C@@H](c2c(OC(=O)CCCC)cc3oc4cc(OC(=O)CCCC)c(OC(=O)CCCC)cc4c(=O)c3c2OC(=O)CCCC)[C@H](OC(=O)CCCC)[C@@H](OC(=O)CCCC)[C@@H]1OC(=O)CCCC` [yk-8-1, 1,3,2′,3′,4′,6,6′,7-octa-O-valerylmangiferin], the pIC50 in assay [1] was less than 4.00; in assay [2], 4.67. Also, the “phospho-NIK band density” value at phospho-NIK is listed as “decrease in band density”. The “phospho-IKK band density” value in the assay with phospho-IKK is “decrease in band density”. Besides, the CD138 expression levels result with CD138 is recorded as “markedly reduced”.

As to `CCCCC(=O)OC[C@H]1O[C@@H](c2c(O)cc3oc4cc(O)c(O)cc4c(=O)c3c2OC(=O)CCCC)[C@H](OC(=O)CCCC)[C@@H](OC(=O)CCCC)[C@@H]1OC(=O)CCCC` [yk-8-3, 1,2′,3′,4′,6-penta-O-valerylmangiferin], the pIC50 in assay [1] (Homo sapiens, Rec1) was 5.48; in assay [2], 7.14. The “phospho-NIK band density” value on phospho-NIK is recorded as “decrease in band density”. Further, the “phospho-IKK band density” value in the assay with phospho-IKK was “decrease in band density”. Besides, the CD138 expression levels entry with CD138 is on record as “markedly reduced”.
